Results reported in ChEMBL document CHEMBL3045223, “Synthesis, nematicidal and antimicrobial properties of Bis-[4-methoxy-3-[3-(4-fluorophenyl)-6-(4-methylphenyl)-2(aryl)-tetrahydro-2H-pyrazolo[3,4-d]thiazol-5-yl]phenyl]methanes” (2009).
In brackets after ≈: the same amount, converted by molar mass. Activity calls are given as the source filed them. No cut-off for these calls is given here.

Experiments:
Type in all cases: functional
[1] = tested on: Trichophyton mentagrophytes; test: Antifungal activity against Trichophyton mentagrophytes IFO 40996 assessed as growth inhibition at 37 degC for 48 hr; conditions: IFO 40996, 48 h
Klebsiella aerogenes [2] = test: Antibacterial activity against Enterobacter aerogenes MTCC 39 assessed as inhibition zones at 300 ug/disk at 37 degC for 24 hr; conditions: MTCC 39, 24 h, read-out: IZ
[3] = tested on: Chromobacterium violaceum; test: Antibacterial activity against Chromobacterium violaceum MTCC 2656 assessed as inhibition zones at 300 ug/disk at 37 degC for 24 hr; conditions: MTCC 2656, 24 h, read-out: IZ
Pseudomonas aeruginosa [4] = test: Antibacterial activity against Pseudomonas aeruginosa MTCC 741 assessed as inhibition zones at 300 ug/disk at 37 degC for 24 hr; conditions: MTCC 741, 24 h, read-out: IZ
Aspergillus fumigatus [5] = test: Antifungal activity against Aspergillus fumigatus HIC 6094 assessed as growth inhibition at 300 ug/disc at 37 degC for 48 hr; conditions: for zone of inhibition at 300 µg/disc: HIC 6094, 48 h, read-out: IZ
Klebsiella aerogenes [6] = test: Antibacterial activity against Enterobacter aerogenes MTCC 39 assessed as growth arrest at 37 degC for 24 hr; conditions: MTCC 39, 24 h
[7] = tested on: Lysinibacillus sphaericus; test: Antibacterial activity against Lysinibacillus sphaericus MTCC 11 assessed as inhibition zones at 300 ug/disk at 37 degC for 24 hr; conditions: MTCC 11, 24 h, read-out: IZ
Bacillus subtilis [8] = test: Antibacterial activity against Bacillus subtilis MTCC 441 assessed as growth arrest at 37 degC for 24 hr; conditions: MTCC 441, 24 h
[9] = tested on: Ditylenchus myceliophagus; test: Nematicidal activity against Ditylenchus myceliophagus assessed as immobility; conditions: read-out: LD50 (the source's name)
Trichophyton rubrum [10] = test: Antifungal activity against Trichophyton rubrum IFO 9185 assessed as growth inhibition at 300 ug/disk at 37 degC for 48 hr; conditions: for zone of inhibition at 300 µg/disc: IFO 9185, 48 h, read-out: IZ
Trichophyton rubrum [11] = test: Antifungal activity against Trichophyton rubrum IFO 9185 assessed as growth inhibition at 37 degC for 48 hr; conditions: IFO 9185, 48 h
Candida albicans [12] = test: Antifungal activity against Candida albicans ATCC 10231 assessed as growth inhibition at 300 ug/disk at 37 degC for 48 hr; conditions: for zone of inhibition at 300 µg/disc: ATCC 10231, 48 h, read-out: IZ
[13] = tested on: Lysinibacillus sphaericus; test: Antibacterial activity against Lysinibacillus sphaericus MTCC 11 assessed as growth arrest at 37 degC for 24 hr; conditions: MTCC 11, 24 h
[14] = tested on: Chromobacterium violaceum; test: Antibacterial activity against Chromobacterium violaceum MTCC 2656 assessed as growth arrest at 37 degC for 24 hr; conditions: MTCC 2656, 24 h
Staphylococcus aureus [15] = test: Antibacterial activity against Staphylococcus aureus MTCC 96 assessed as inhibition zones at 300 ug/disc at 37 degC for 24 hr; conditions: MTCC 96, 24 h, read-out: IZ
Candida albicans [16] = test: Antifungal activity against Candida albicans ATCC 10231 assessed as growth inhibition at 37 degC for 48 hr
Caenorhabditis elegans = test: Nematicidal activity against Caenorhabditis elegans assessed as immobility; conditions: read-out: LD50 (the source's name)
Bacillus subtilis [17] = test: Antibacterial activity against Bacillus subtilis MTCC 441 assessed as inhibition zones at 300 ug/disk at 37 degC for 24 hr; conditions: MTCC 441, 24 h, read-out: IZ
[18] = tested on: Trichophyton mentagrophytes; test: Antifungal activity against Trichophyton mentagrophytes IFO 40996 assessed as growth inhibition at 300 ug/disc at 37 degC for 48 hr; conditions: for zone of inhibition at 300 µg/disc: IFO 40996, 48 h, read-out: IZ
Aspergillus fumigatus [19] = test: Antifungal activity against Aspergillus fumigatus HIC 6094 assessed as growth inhibition at 37 degC for 48 hr; conditions: HIC 6094, 48 h
Pseudomonas aeruginosa [20] = test: Antibacterial activity against Pseudomonas aeruginosa MTCC 741 assessed as growth arrest at 37 degC for 24 hr; conditions: MTCC 741, 24 h
Staphylococcus aureus [21] = test: Antibacterial activity against Staphylococcus aureus MTCC 96 assessed as growth arrest at 37 degC for 24 hr; conditions: MTCC 96, 24 h
Pseudomonas aeruginosa [22] = test: Antibacterial activity against Pseudomonas aeruginosa MTCC 741 assessed as inhibition zones at 100 ug/disk at 37 degC for 24 hr; conditions: MTCC 741, 24 h, read-out: IZ
[23] = tested on: Chromobacterium violaceum; test: Antibacterial activity against Chromobacterium violaceum MTCC 2656 assessed as inhibition zones at 100 ug/disk at 37 degC for 24 hr; conditions: MTCC 2656, 24 h, read-out: IZ
Klebsiella aerogenes [24] = test: Antibacterial activity against Enterobacter aerogenes MTCC 39 assessed as inhibition zones at 100 ug/disk at 37 degC for 24 hr; conditions: MTCC 39, 24 h, read-out: IZ
Bacillus subtilis [25] = test: Antibacterial activity against Bacillus subtilis MTCC 441 assessed as inhibition zones at 100 ug/disk at 37 degC for 24 hr; conditions: MTCC 441, 24 h, read-out: IZ
Staphylococcus aureus [26] = test: Antibacterial activity against Staphylococcus aureus MTCC 96 assessed as inhibition zones at 100 ug/disc at 37 degC for 24 hr; conditions: MTCC 96, 24 h, read-out: IZ
[27] = tested on: Lysinibacillus sphaericus; test: Antibacterial activity against Lysinibacillus sphaericus MTCC 11 assessed as inhibition zones at 100 ug/disk at 37 degC for 24 hr; conditions: MTCC 11, 24 h, read-out: IZ

| SMILES | MBC [1] [µg/mL] | MIC [1] [µg/mL] | zone of inhibition at 300 µg/disc (Klebsiella aerogenes [2]) [mm] | zone of inhibition at 300 µg/disc [3] [mm] | zone of inhibition at 300 µg/disc (Pseudomonas aeruginosa [4]) [mm] | MBC (Klebsiella aerogenes [6]) [µg/mL] | MIC (Klebsiella aerogenes [6]) [µg/mL] | zone of inhibition at 300 µg/disc [7] [mm] | MBC (Bacillus subtilis [8]) [µg/mL] | MIC (Bacillus subtilis [8]) [µg/mL] | LC50 [9] [µg/mL] | MBC (Trichophyton rubrum [11]) [µg/mL] | MBC [13] [µg/mL] | MIC [13] [µg/mL] | MBC [14] [µg/mL] | MIC [14] [µg/mL] | MBC (Pseudomonas aeruginosa [20]) [µg/mL] | MIC (Pseudomonas aeruginosa [20]) [µg/mL] | MBC (Staphylococcus aureus [21]) [µg/mL] | MIC (Staphylococcus aureus [21]) [µg/mL] | other results |
| --- | --- | --- | --- | --- | --- | --- | --- | --- | --- | --- | --- | --- | --- | --- | --- | --- | --- | --- | --- | --- | --- |
| COc1ccc(Cc2ccc(OC)c(C3SC4C(=NN(C(C)C)C4c4ccc(F)cc4)N3c3ccc([N+](=O)[O-])cc3)c2)cc1C1SC2C(=NN(C(C)C)C2c2ccc(F)cc2)N1c1ccc([N+](=O)[O-])cc1 (centres undefined) | 25 (≈ 25.1 µM) | 12.5 (≈ 12.5 µM) | 17 | 15 | 10 | 25 (≈ 25.1 µM) | 12.5 (≈ 12.5 µM) | 13 | 25 (≈ 25.1 µM) | 25 (≈ 25.1 µM) | 510 (≈ 511 µM) | 25 (≈ 25.1 µM) | 50 (≈ 50.1 µM) | 50 (≈ 50.1 µM) | 50 (≈ 50.1 µM) | 25 (≈ 25.1 µM) | 25 (≈ 25.1 µM) | 25 (≈ 25.1 µM) | 50 (≈ 50.1 µM) | 25 (≈ 25.1 µM) | inhibition zone (IZ) (Aspergillus fumigatus [5]): inactive; zone of inhibition at 300 µg/disc (Trichophyton rubrum [10]): 9 mm; MIC (Trichophyton rubrum [11]): 12.5 µg/mL (≈ 12.5 µM); inhibition zone (IZ) (Candida albicans [12]): inactive; zone of inhibition at 300 µg/disc (Staphylococcus aureus [15]): 23 mm; MBC (Candida albicans [16]; ATCC 10231, 48 h): 25 µg/mL (≈ 25.1 µM); MIC (Candida albicans [16]; ATCC 10231, 48 h): 25 µg/mL (≈ 25.1 µM); LC50 (Caenorhabditis elegans): 600 µg/mL (≈ 602 µM); zone of inhibition at 300 µg/disc (Bacillus subtilis [17]): 18 mm; inhibition zone (IZ) [18]: inactive; MBC (Aspergillus fumigatus [19]): 50 µg/mL (≈ 50.1 µM); MIC (Aspergillus fumigatus [19]): 25 µg/mL (≈ 25.1 µM) |
| CN[C@@H]1[C@H](O[C@H]2[C@H](O[C@H]3[C@H](O)[C@@H](O)[C@H](N=C(N)N)[C@@H](O)[C@@H]3N=C(N)N)O[C@@H](C)[C@]2(O)C=O)O[C@@H](CO)[C@H](O)[C@H]1O [STREPTOMYCIN] | – | – | – | – | – | 6.25 (≈ 10.7 µM) | 1.56 (≈ 2.68 µM) | – | 12.5 (≈ 21.5 µM) | 6.25 (≈ 10.7 µM) | – | – | 25 (≈ 43 µM) | 6.25 (≈ 10.7 µM) | 6.25 (≈ 10.7 µM) | 3.12 (≈ 5.36 µM) | 6.25 (≈ 10.7 µM) | 1.56 (≈ 2.68 µM) | 12.5 (≈ 21.5 µM) | 6.25 (≈ 10.7 µM) | zone of inhibition at 100 µg/disc (Pseudomonas aeruginosa [22]): 15 mm; zone of inhibition at 100 µg/disc [23]: 20 mm; zone of inhibition at 100 µg/disc (Klebsiella aerogenes [24]): 25 mm; zone of inhibition at 100 µg/disc (Bacillus subtilis [25]): 30 mm; zone of inhibition at 100 µg/disc (Staphylococcus aureus [26]): 41 mm; zone of inhibition at 100 µg/disc [27]: 20 mm |
| COc1ccc(Cc2ccc(OC)c(C3SC4C(=NN(c5ccccc5)C4c4ccc(F)cc4)N3c3ccc(C)cc3)c2)cc1C1SC2C(=NN(c3ccccc3)C2c2ccc(F)cc2)N1c1ccc(C)cc1 (centres undefined) | 25 (≈ 24.9 µM) | 25 (≈ 24.9 µM) | 17 | 19 | 18 | 25 (≈ 24.9 µM) | 12.5 (≈ 12.5 µM) | 16 | 25 (≈ 24.9 µM) | 12.5 (≈ 12.5 µM) | 850 (≈ 847 µM) | 50 (≈ 49.8 µM) | 50 (≈ 49.8 µM) | 25 (≈ 24.9 µM) | 25 (≈ 24.9 µM) | 25 (≈ 24.9 µM) | 50 (≈ 49.8 µM) | 12.5 (≈ 12.5 µM) | 12.5 (≈ 12.5 µM) | 12.5 (≈ 12.5 µM) | zone of inhibition at 300 µg/disc (Aspergillus fumigatus [5]): 10 mm; inhibition zone (IZ) (Trichophyton rubrum [10]): inactive; MIC (Trichophyton rubrum [11]): 25 µg/mL (≈ 24.9 µM); zone of inhibition at 300 µg/disc (Candida albicans [12]): 11 mm; zone of inhibition at 300 µg/disc (Staphylococcus aureus [15]): 27 mm; MBC (Candida albicans [16]): inactive; MIC (Candida albicans [16]): inactive; LC50 (Caenorhabditis elegans): 670 µg/mL (≈ 668 µM); zone of inhibition at 300 µg/disc (Bacillus subtilis [17]): 14 mm; zone of inhibition at 300 µg/disc [18]: 9 mm; MBC (Aspergillus fumigatus [19]): 25 µg/mL (≈ 24.9 µM); MIC (Aspergillus fumigatus [19]): 25 µg/mL (≈ 24.9 µM) |
| COc1ccc(Cc2ccc(OC)c(C3SC4C(=NN(Cc5ccccc5)C4c4ccc(F)cc4)N3c3ccc(Cl)cc3)c2)cc1C1SC2C(=NN(Cc3ccccc3)C2c2ccc(F)cc2)N1c1ccc(Cl)cc1 (centres undefined) | 25 (≈ 23.3 µM) | 12.5 (≈ 11.7 µM) | 23 | 18 | 18 | 12.5 (≈ 11.7 µM) | 6.25 (≈ 5.83 µM) | 23 | 12.5 (≈ 11.7 µM) | 6.25 (≈ 5.83 µM) | 180 (≈ 168 µM) | 12.5 (≈ 11.7 µM) | 50 (≈ 46.6 µM) | 6.25 (≈ 5.83 µM) | 6.25 (≈ 5.83 µM) | 6.25 (≈ 5.83 µM) | 50 (≈ 46.6 µM) | 12.5 (≈ 11.7 µM) | 25 (≈ 23.3 µM) | 6.25 (≈ 5.83 µM) | zone of inhibition at 300 µg/disc (Aspergillus fumigatus [5]): 17 mm; zone of inhibition at 300 µg/disc (Trichophyton rubrum [10]): 14 mm; MIC (Trichophyton rubrum [11]): 6.25 µg/mL (≈ 5.83 µM); zone of inhibition at 300 µg/disc (Candida albicans [12]): 21 mm; zone of inhibition at 300 µg/disc (Staphylococcus aureus [15]): 30 mm; MBC (Candida albicans [16]; ATCC 10231, 48 h): 6.25 µg/mL (≈ 5.83 µM); MIC (Candida albicans [16]; ATCC 10231, 48 h): 3.12 µg/mL (≈ 2.91 µM); LC50 (Caenorhabditis elegans): 200 µg/mL (≈ 187 µM); zone of inhibition at 300 µg/disc (Bacillus subtilis [17]): 23 mm; zone of inhibition at 300 µg/disc [18]: 16 mm; MBC (Aspergillus fumigatus [19]): 12.5 µg/mL (≈ 11.7 µM); MIC (Aspergillus fumigatus [19]): 6.25 µg/mL (≈ 5.83 µM) |
